The values below come from patent publication US9617221B2, “Kinase modulators for the treatment of cancer” (Synovo GmbH, priority 2010, dated 2017).

In experiment [1] the test system is IL-12. Put plainly: IL-12 gene expression in murine pancreatic cancer tumours (real time PCR). It is filed as in vivo, mice. To be noted: tumour mRNA; daily i.p. 10 μmol/kg; vehicle 3.1. The method, then: (§1) For treatment of pancreatic cancer, mice susceptible to pancreatic cancer were observed until cancer was apparent. Thereafter, animals were classified by ultrasound to a group of similar tumour size and were allocated to treatments: Vehicle, Gemcitabine 100 mg/kg every 5th day, or Gemcitabine plus the IL-10 inhibitor 43j ([…] i.p.), or the IL-12 stimulant 49 (10 μmol/kg/day i.p.) or all three combined at the doses specified.
(§2) Murine pancreatic cancer was induced as in Example 61. Mice carrying tumours were selected when the tumour was first detectable by ultrasound and the animals allocated to groups treated with either Vehicle, 49 alone or 43J alone or the combination of 49 and 43j. Compounds were supplied daily i.p. at 10 μmol/kg. Gene expression as determined by mRNA levels is determined by real time PCR methods using reverse transcribed templates.

The test system of the next experiment is IL-23. Put plainly: IL-23 gene expression in murine pancreatic cancer tumours (real time PCR). It is filed as in vivo, mice. The note with it: tumour mRNA; daily i.p. 10 μmol/kg; vehicle 15.2. The method, then: as §1, §2
Experiment [2] has as its system IL-10. Put plainly: IL-10 production by bone marrow derived macrophage or tumour associated macrophage. To be noted: 1 or 10 μM; stimulant such as LPS or TNFa or tumour conditioned medium. It is filed as cell-based, C57BL/6 mice. The method, then: (§3) A similar experiment can be performed using Bone marrow derived macrophage or Tumour associated macrophage (TAM): Mouse macrophages were derived from the bone marrow of WT, C57BL/6 mice and cultured for 7 d in DMEM medium supplemented with 10 ng/ml recombinant mouse M-CSF (R & D Systems). TAMs were isolated from the peritoneal cavity of mice in which IDB ovarian cancers had been growing i.p. for up to 10 wk. The macrophage are then treated with the compound to test at 1 or 10 μM in the presence of a stimulant such as LPS or TNFa or tumour conditioned medium.

The test system of the next experiment is TNFa. Put plainly: TNFa gene expression in murine pancreatic cancer tumours (real time PCR). The format is in vivo, mice. The note with it: tumour mRNA; daily i.p. 10 μmol/kg; vehicle 15.2. The protocol: as §1, §2
Another experiment concerns IFNg. Nature of the experiment: IFNg gene expression in murine pancreatic cancer tumours (real time PCR). The format is in vivo, mice. To be noted: tumour mRNA; daily i.p. 10 μmol/kg; vehicle 1.0. The method, then: as §1, §2
Experiment [3] has as its system IL-10. Put plainly: IL-10 gene expression in murine pancreatic cancer tumours (real time PCR). To be noted: tumour mRNA; daily i.p. 10 μmol/kg; vehicle 21.4. The format is in vivo, mice. The protocol:
as §1, §2

The test system of a further experiment is IL-6. Nature of the experiment: IL-6 gene expression in murine pancreatic cancer tumours (real time PCR). To be noted: tumour mRNA; daily i.p. 10 μmol/kg; vehicle 22.5. The format is in vivo, mice. The protocol:
as §1, §2

For the next experiment, the system named is IL-17. Put plainly: IL-17 gene expression in murine pancreatic cancer tumours (real time PCR). The format is in vivo, mice. To be noted: tumour mRNA; daily i.p. 10 μmol/kg; vehicle 17.8. The protocol:
as §1, §2

In experiment [4] the test system is IL-12. Put plainly: IL-12 production by bone marrow derived macrophage or tumour associated macrophage. It is filed as cell-based, C57BL/6 mice. To be noted: 1 or 10 μM; stimulant such as LPS or TNFa or tumour conditioned medium. The method, then: as §3
Another experiment deals with IL-4. Put plainly: IL-4 production, Con A, spleen. It is filed as cell-based, mice. To be noted: 5 μM, 72 h. The protocol:
Peritoneal macrophage or splenocytes (lymphocytes and macrophage) were harvested from donor mice using standard techniques. Cells were placed in culture and stimulated with either LPS (10 μg/mL) or concanavalin A 5 μg/mL (Sigma Chemical Co., St Louis, Mo.) in RPMI-1640 medium supplemented with antibiotics, […] 2-mercaptoethanol, 10 mm HEPES buffer and 10% fetal calf serum (FCS) (see Holan et al., 1985) to stimulate macrophage and T-cells respectively. Compounds were added from DMSO stock solutions to a final concentration of 50 μM or less with DMSO not exceeding 1% of total volume. After 72 h, cell supernatant was recovered and the cytokine levels were estimated by ELISA. The effect of compounds on cytokine production was recorded as follows: […]

For experiment [5], the system named is IL-10. Nature of the experiment: IL-10 production by LPS-stimulated murine peritoneal macrophage (ELISA). The format is cell-based, mice. The note with it: murine peritoneal macrophage. The gist of the method:
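Peritoneal macrophages or splenocytes are harvested from mice and cultured in RPMI-1640 containing 10% fetal calf serum. LPS at 10 μg/mL activates the macrophages; Con A at 5 μg/mL activates T cells. Compounds (final ≤50 μM, ≤1% DMSO) are present throughout, and ELISA of 72 h supernatants gives cytokine output.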

The next experiment has as its system pancreatic cancer. Put plainly: Survival of mice with pancreatic cancer. The format is in vivo. To be noted: Gemcitabine 100 mg/kg every 5th day; 43j 10 mmol/kg/d i.p.; 49 10 μmol/kg/day i.p. The protocol: as §1
For experiment [6], the system named is Lewis Lung Carcinoma Cells (LLC). Put plainly: Subcutaneous Lewis Lung Carcinoma tumour growth. The format is in vivo, C57BLK6 mice. To be noted: 12.5 mg/kg p.o. once daily. The protocol:
Lewis Lung Carcinoma Cells (LLC) are cultured by incubation in a medium which is RPMI 1640 (50%) and DMEM (50%) with a final concentration or fetal calf serum of 10%. After culture to the log phase, 10^5 cells are injected subcutaneously in […] mice. Mice are treated with substance either orally or via intraperitoneal injection.

In the case of `CC[C@H]1OC(=O)[C@H](C)[C@@H](O[C@H]2C[C@@](C)(OC)[C@@H](O)[C@H](C)O2)[C@H](C)[C@@H](O[C@@H]2O[C@H](C)C[C@H](N(C)CCCCCC(=O)OCCSc3nc(-c4ccc(F)cc4)c(-c4ccnc(NC5CCOCC5)c4)[nH]3)[C@H]2O)[C@](C)(O)C[C@@H](C)CN(C)[C@H](C)[C@@H](O)[C@]1(C)O` [Compound 43j], in the experiment on IL-12 [1], the “Relative Gene expression, IL-12” value stood at 3.4. Further, the “Relative Gene expression, IL-23” value with IL-23 is 11.0. Further, in the experiment on IL-10 [2], the “production of IL-10” value is given as “inhibits the production of IL-10”. In addition, in the experiment on TNFa, the “Relative Gene expression, TNFa” value worked out at 13.1. For the same compound, the “Relative Gene expression, IFNg” value in the experiment with IFNg is listed as 4.2. In the experiment on IL-10 [3], the “Relative Gene expression, IL-10” value was found to be 3.1. Moreover, in the experiment with IL-6, the “Relative Gene expression, IL-6” value was found to be 15.2. Besides, in the experiment on IL-17, the “Relative Gene expression, IL-17” value stood at 14.6.

As to `Nc1c(C(=O)c2cccc(OCC(O)CO)c2)cnn1-c1ccc(F)cc1` (stereo not shown) [Compound 49, [5-Amino-1-(4-fluoro-phenyl)-1H-pyrazol-4-yl]-[3-(2,3-dihydroxy-propoxy)-phenyl]-methanone], the “production of IL-12” value in the experiment with IL-12 [4] was “stimulates the production of IL-12”. The “Relative Gene expression, IL-12” value in the experiment with IL-12 [1] is 28.8. The “Relative Gene expression, IL-23” value in the experiment on IL-23 came out at 2.1. Besides, the “IL-4 (Con A, spleen), amount of cytokine” value with IL-4 is reported as 188 % of control treated with solvent alone. In the experiment with TNFa, the “Relative Gene expression, TNFa” value was determined as 21.4. Besides, the “Relative Gene expression, IFNg” value with IFNg came to 6.3. Further, the entries for the “IL-10 by ELISA, % of solvent treated control” value in the experiment on IL-10 [5] (1.25 μM inhibitor in medium), in the experiment on IL-10 [5] (5 μM inhibitor in medium) and in the experiment on IL-10 [5] (20 μM inhibitor in medium) were 41 % of solvent treated control, 42 % of solvent treated control and 13 % of solvent treated control, respectively. The “Relative Gene expression, IL-10” value in the experiment with IL-10 [3] is 8.9. For the same compound, the “Relative Gene expression, IL-6” value in the experiment on IL-6 is 18.3. Further, the “Relative Gene expression, IL-17” value with IL-17 is reported as 15.2.

As to `Nc1ccn([C@@H]2O[C@H](CO)[C@@H](O)C2(F)F)c(=O)n1` [Gemcitabine], in the experiment on pancreatic cancer, the “survival time relative to vehicle” value is given as 1.5 fold.

Turning to `CCc1nc(-c2cccc(C)c2)c(-c2ccnc(NC(=O)c3ccccc3)c2)s1` [TAK-715], the “growth rate of the LLC tumour” value in experiment [6] is listed as “reduction in the growth rate of the LLC tumour”.
